Read-outs that look alike come from different tables or passages of the source.
How the values were obtained:
Format in all cases: in vivo
[1] = system: Culex pipiens pallens; experiment: Experimental Example 5: larvae in treated water, death rate of Culex pipiens pallens; settings: 24 h, read-out: death rate of the pest
Experimental: Preparations of the present compounds (1), (2), (4), (5), (6), (8), (9), (11), (12), (13), (14), (15), (16), (17), (18), (19), (21), (22), (23), (24), (25), (26), (27), (31), (33), (34), (35), (36), (37), (38), (39), (40), (42), (43), (47), (48), (50), (52), (53), (54), (62), (64), (65), (66), (67), (68) and (70) obtained according to Formulation Example 5 were diluted with water so that the active ingredient concentration was 500 ppm to prepare experimental pesticidal solutions.
0.7 ml of the experimental pesticidal solution was added to 100 mL of ion-exchanged water (active ingredient concentration: 3.5 ppm). Into the solution, 20 last-instar larvae of Culex pipiens pallens were released. After one day, the surviving number was examined and the death rate of the pest was calculated.

[2] = system: Musca domestics; experiment: Experimental Example 3: filter paper test with sucrose bait, death rate of Musca domestics; settings: read-out: death rate of the pest
Experimental: Preparations of the present compounds (1), (2), (3), (4), (5), (6), (8), (9), (10), (11), (12), (13), (14), (15), (16), (17), (18), (19), (21), (22), (23), (24), (25), (26), (27), (31), (34), (35), (36), (37), (38), (39), (40), (42), (47), (50), (52), (54), (66), (67) and (68) obtained according to Formulation Example 5 were diluted with water so that the active ingredient concentration was 500 ppm to prepare experimental pesticidal solutions.
(§1) A filter paper having a diameter of 5.5 cm was spread on the bottom of a polyethylene cup having a diameter of 5.5 cm and 0.7 ml of the experimental pesticidal solution was added dropwise onto the filter paper. As a bait 30 mg of sucrose was uniformly placed on the filter paper. Into the polyethylene cup, 10 female Musca domestics imagoes were released and the cup was sealed with a lid. After 24 hours, the number of surviving Musca domestics was examined and the death rate of the pest was calculated.

[3] = system: Blattalla germanica; experiment: Experimental Example 4: filter paper test with sucrose bait, death rate of Blattalla germanica; settings: 144 h; 500 ppm active ingredient, 0.7 ml on filter paper; two male imagoes; after 6 days
Experimental: Preparations of the present compounds (2), (4), (5), (6), (8), (9), (11), (12), (13), (15), (17), (18), (19), (21), (24), (25), (26), (27), (35), (36), (37), (38), (40), (41), (42), (47), (50), (52), (54), (62), (64), (65), (66) and (68) obtained according to Formulation Example 5 were diluted with water so that the active ingredient concentration was 500 ppm to prepare experimental pesticidal solutions.
as §1, with “two male Blattalla gexmanica images” for “10 female Musca domestics imagoes”, “6 days,” for “24 hours,”, “Blattalla germanica” for “Musca domestics”

[4] = active ingredient concentration 3.5 ppm in water, 20 last-instar larvae, after one day
[5] = 500 ppm active ingredient, 0.7 ml on filter paper, 10 female imagoes, after 24 hours

Structure (SMILES) | pest or weed control at 3.5 ppm [1, 4] [%] | pest or weed control at 500 ppm [2, 5] [%] | pest or weed control at 500 ppm [3] [%] | pest or weed control at 3.5 ppm [1] [%] | pest or weed control at 500 ppm ([2]; 24 h) [%]
CC(C)(C)c1cc(CC(C#N)(C#N)CCC(F)(F)F)[nH]n1 [present compound (1)] | ≥ 95 | ≥ 90 | – | – | –
Cn1nc(C(C)(C)C)cc1CC(C#N)(C#N)CCC(F)(F)F [present compound (2)] | ≥ 95 | ≥ 90 | 100 | – | –
CC(C)(C)c1cc(CC(C#N)(C#N)CCC(F)(F)F)n(CC(F)(F)F)n1 [present compound (3)] | – | ≥ 90 | – | – | –
CC(C)(C)c1cc(CC(C#N)(C#N)CCC(F)(F)F)on1 [present compound (4)] | ≥ 95 | ≥ 90 | 100 | – | –
CC(C)(C)c1cc(CC(C#N)(C#N)CCC(F)(F)F)sn1 [present compound (5)] | ≥ 95 | ≥ 90 | 100 | – | –
CC(C)(C)c1cc(CC(C#N)(C#N)CCC(F)(F)F)no1 [present compound (6)] | ≥ 95 | ≥ 90 | 100 | – | –
N#CC(C#N)(CCC(F)(F)F)Cc1cnn(Cc2ccccc2)c1 [present compound (8)] | ≥ 95 | ≥ 90 | 100 | – | –
CC(C)(C)c1nc(CC(C#N)(C#N)CCC(F)(F)F)co1 [present compound (9)] | ≥ 95 | ≥ 90 | 100 | – | –
N#CC(C#N)(CCC(F)(F)F)Cc1cscn1 [present compound (10)] | – | ≥ 90 | – | – | –
Cc1nc(CC(C#N)(C#N)CCC(F)(F)F)cs1 [present compound (11)] | ≥ 95 | ≥ 90 | 100 | – | –
CC(C)(C)c1nc(CC(C#N)(C#N)CCC(F)(F)F)cs1 [present compound (12)] | ≥ 95 | ≥ 90 | 100 | – | –
N#CC(C#N)(CCC(F)(F)F)Cc1csc(Cl)n1 [present compound (13)] | ≥ 95 | ≥ 90 | 100 | – | –
C#CCOc1nc(CC(C#N)(C#N)CCC(F)(F)F)cs1 [present compound (14)] | ≥ 95 | ≥ 90 | – | – | –
Cc1ncc(CC(C#N)(C#N)CCC(F)(F)F)s1 [present compound (15)] | ≥ 95 | ≥ 90 | 100 | – | –
CCc1ncc(CC(C#N)(C#N)CCC(F)(F)F)s1 [present compound (16)] | ≥ 95 | ≥ 90 | – | – | –
CC(C)(C)c1ncc(CC(C#N)(C#N)CCC(F)(F)F)s1 [present compound (17)] | ≥ 95 | ≥ 90 | 100 | – | –
N#CC(C#N)(CCC(F)(F)F)Cc1cnc(Cl)s1 [present compound (18)] | ≥ 95 | ≥ 90 | 100 | – | –
C#CCOc1ncc(CC(C#N)(C#N)CCC(F)(F)F)s1 [present compound (19)] | ≥ 95 | ≥ 90 | 100 | – | –
CC(C)(C)c1nsc(CC(C#N)(C#N)CCC(F)(F)F)n1 [present compound (21)] | ≥ 95 | ≥ 90 | 100 | – | –
CC(C)(C)c1nnc(CC(C#N)(C#N)CCC(F)(F)F)o1 [present compound (22)] | ≥ 95 | ≥ 90 | – | – | –

Structure (SMILES) | pest or weed control at 3.5 ppm [1, 4] [%] | pest or weed control at 500 ppm [2, 5] [%] | pest or weed control at 500 ppm [3] [%] | pest or weed control at 3.5 ppm [1] [%] | pest or weed control at 500 ppm ([2]; 24 h) [%]
CCc1nc(CC(C#N)(C#N)CCC(F)(F)F)no1 [present compound (23)] | ≥ 95 | ≥ 90 | – | – | –
CC(C)(C)c1nc(CC(C#N)(C#N)CCC(F)(F)F)no1 [present compound (24)] | ≥ 95 | ≥ 90 | 100 | – | –
CC1(c2nc(CC(C#N)(C#N)CCC(F)(F)F)no2)CC1 [present compound (25)] | ≥ 95 | ≥ 90 | 100 | – | –
CC(C)(C)Cc1nc(CC(C#N)(C#N)CCC(F)(F)F)no1 [present compound (26)] | ≥ 95 | ≥ 90 | 100 | – | –
CC(c1cnn(C(C)(C)C)c1)C(C#N)(C#N)CCC(F)(F)F (centres unmarked) [present compound (27)] | ≥ 95 | ≥ 90 | 100 | – | –
C#CCn1cc(CC(C#N)(C#N)CCC(F)(F)F)cn1 [present compound (31)] | ≥ 95 | ≥ 90 | – | – | –
CC(C)(C)n1cc(CC(C#N)(C#N)C2C=CCCC2)cn1 (centres unmarked) [present compound (33)] | ≥ 95 | – | – | – | –
CC(C)(C)n1ncc(CC(C#N)(C#N)CCC(F)(F)F)c1-n1cccc1 [present compound (34)] | ≥ 95 | ≥ 90 | – | – | –
N#CC(C#N)(CCC(F)(F)F)Cc1cc(C(F)(F)F)on1 [present compound (35)] | ≥ 95 | ≥ 90 | 100 | – | –
CC(c1cc(C(F)(F)F)on1)C(C#N)(C#N)CCC(F)(F)F (centres unmarked) [present compound (36)] | ≥ 95 | ≥ 90 | 100 | – | –
N#CC(C#N)(CCC(F)(F)F)Cc1cc(C(F)(F)C(F)(F)C(F)(F)F)on1 [present compound (39)] | – | – | – | ≥ 95 | ≥ 90
CC(C)c1cc(C(C)C(C#N)(C#N)CCC(F)(F)F)no1 (centres unmarked) [present compound (41)] | – | – | 100 | – | –
CC(C)(C)[Si](C)(C)OCc1cc(CC(C#N)(C#N)CCC(F)(F)F)no1 [present compound (43), [(5-(t-butyldimethylsilanyloxymethyl)isoxazol-3-yl)methyl](3,3,3-trifluoropropyl)malononitrile] | – | – | – | ≥ 95 | –
CC(O[Si](C)(C)C(C)(C)C)c1cc(CC(C#N)(C#N)CCC(F)(F)F)no1 (centres unmarked) [present compound (48)] | – | – | – | ≥ 95 | –
CC(C)(O)c1cc(CC(C#N)(C#N)CCC(F)(F)F)no1 [present compound (53)] | ≥ 95 | – | – | – | –
CC(c1cc(C(C)(C)O)on1)C(C#N)(C#N)CCC(F)(F)F (centres unmarked) [present compound (62)] | ≥ 95 | – | 100 | – | –
CCC(c1cc(C(C)(C)O)on1)C(C#N)(C#N)CCC(F)(F)F (centres unmarked) [present compound (64)] | ≥ 95 | – | 100 | – | –
CC(C)C(c1cc(C(C)(C)O)on1)C(C#N)(C#N)CCC(F)(F)F (centres unmarked) [present compound (65)] | ≥ 95 | – | 100 | – | –
C#CCOC(C)(C)c1cc(CC(C#N)(C#N)CCC(F)(F)F)no1 [present compound (67)] | ≥ 95 | ≥ 90 | – | – | –
CC[S+]([O-])c1ncc(CC(C#N)(C#N)CCC(F)(F)F)n1C (centres unmarked) [present compound (70)] | ≥ 95 | – | – | – | –

From patent publication US7846956B2, “Malononitrile compound as pesticides” (Sumitomo Chemical Company, Limited, priority 2004, dated 2010)
